Consider four compounds from patent publication US20170296573A1, “ANTITUMOR DRUG COMPRISING BETA-CYCLODEXTRIN” (JRC G. K., priority 2014, published 2017).

The test system of data set [1] is AKT. The experiment in a line: Example 2 Method A: AKT phosphorylation in RCC4 cells stimulated with IGF1, serum free. Type of data set: cell-based. The conditions noted are these: 10 mM 2DG 2 hours, 10 mM bCD (MBCD), 0-30 ng/ml IGF1 5 minutes.
Method: We ran 20 μg of proteins per lane for western blots. We ran 8, 10, 12.5 and 15% gels depending on the size of proteins being detected by western blots. When there are two proteins having a similar size, gel is flowed in each protein to make western blot analysis about each protein. The immunoprecipitation was undergone by adding 200 μg of protein from solubilized cells and Protein G Sepharose or Protein A Sepharose (Sigma P3296/P9242) pre-conjugated with immunoprecipitation antibody to a buffer for immunoprecipitation, and slowly rotating the tube containing the sample buffer at 4° C. overnight. The buffer for immunoprecipitation comprises 20 mM Tris Ph 7.5, 1% Triton-X100, 150 mM NaCl, phosphatase inhibitor cocktail (Cell Signaling (#58709S)), and 10% glycerol. Next morning, the content in the tube was centrifuged. The precipitate was washed with the same buffer twice and dissolved in SDS buffer. The precipitate in the solution was separated with 15% SDS-PAGE or 12.5% SDS-PAGE and analyzed by Western blotting.
The bCD used herein was MBCD.
RCC4 cells were incubated in serum free media for 2 hours with or without 10 mM 2DG. In the last hour, 10 mM bCD was added to each one subset of the cells treated/untreated with 2DG. Then 0-30 ng/ml IGF1 was added and the incubation continued for 5 minutes before the cells were harvested and analyzed by Western blotting.
Data set [2] relates to caspase 9. The data set can be described thus: Example 7: caspase 9 cleavage in RCC4 cells, Western blot. The data set is classed as cell-based. A general note: A western blot detects proteins with antibodies after separation by electrophoresis.
Method: (§1) We ran 20 μg of proteins per lane for western blots. We ran 8, 10, 12.5 and 15% gels depending on the size of proteins being detected by western blots. When there are two proteins having a similar size, gel is flowed in each protein to make western blot analysis about each protein. The immunoprecipitation was undergone by adding 200 μg of protein from solubilized cells and Protein G Sepharose or Protein A Sepharose (Sigma P3296/P9242) pre-conjugated with immunoprecipitation antibody to a buffer for immunoprecipitation, and slowly rotating the tube containing the sample buffer at 4° C. overnight. The buffer for immunoprecipitation comprises 20 mM Tris Ph 7.5, 1% Triton-X100, 150 mM NaCl, phosphatase inhibitor cocktail (Cell Signaling (#58709S)), and 10% glycerol. […] The precipitate in the solution was separated with 15% SDS-PAGE or 12.5% SDS-PAGE and analyzed by Western blotting.
(§2) (A and B) RCC4 cells were treated with 2DG, bCD, 2DG +bCD, or left untreated as done in Example 6. Approximately 20 μg of the whole cell lysates (WCL) were analyzed by western blotting. Bak- and Bcl-xL-bound proteins were immune-precipitated from approximately 200 μg of cell lysates and analyzed by western blotting. (C) 3 μM ABT with or without the 20 μM pan-caspase inhibitor z-VAD was added to the cells pre-treated with the combination of 2DG and bCD over 2 hours, and analyzed by Western blotting for caspase 9. […]
Data set [3] has as its system cytochrome c. The data set can be described thus: Example 7: cytochrome c release assay in RCC4 cells. The data set is classed as cell-based. The conditions noted are these: RCC4 cells pre-treated with 2DG-bCD.
Method: RCC4 cells grown and treated on glass cover slips were first fixed with 3.7% formaldehyde in PBS for 10 minutes. Then the cover slips were briefly exposed to 100% methanol kept in a −20° C. freezer. Cover slips were incubated with 10% serum in PBS before being stained with mouse anti-cytochrome c antibody overnight. Next morning, the cover slips were washed and blocked with 10% serum in PBS for 30 minutes. Then they were exposed to secondary anti-mouse antibody conjugated with AF488 for 30 minutes. They were washed again and exposed to propidium iodide (1 μg/mL in PBS) for 15 minutes to stain DNA in the nucleus before being washed and mounted on the glass slides. We used a Keyence BZ9000 microscope with a 100× objective lens for observation. […] (E) RCC4 cells treated with 2DG-bCD (left panel), RCC4 cells treated with 2DG-bCD-ABT (middle panel), and RCC4 cells treated with 2DG-bCD-ABT in the presence of 20 μM pan-caspase inhibitor z-VAD (right panel) were immunostained using anti-cytochrome c antibody and GFP-conjugated anti-mouse antibody. Nuclei were stained red with propidium iodide.
Data set [4] concerns the target Bak-Bcl-xL complex (Homo sapiens, UniProt Q07817). The data set can be described thus: Example 7: immunoprecipitation of Bak-bound proteins in RCC4 cells, Bcl-xL. The data set is classed as cell-based. The conditions noted are these: RCC4 cells pre-treated with 2DG and bCD, 3 μM ABT.
Method: as §1, §2
The conditions of data set [5]: mice, injected, four hours later; cited from earlier work.
Data set [6] relates to UOK121 cells. The data set can be described thus: Example 10 Test B: cyclodextrin with 2DG-ABT in UOK121 cells, live cells by trypan-blue dye exclusion. Type of data set: cell-based, human. The conditions noted are these: 10 mM 2DG, 10 mM cyclodextrin, 0.3 μM ABT-263, 25 mM glucose. As to the method:
Dead and live cells were counted by trypan-blue dye exclusion methods. These experiments were done in triplicate, and the error bars indicate the standard deviation.
(Test A) UOK121 cells were incubated in 10% serum medium with 5 mM or 10 mM α-, β-, and γ-cyclodextrins for 45 minutes. The same medium without any cyclodextrin was also incubated as a control. The cells were harvested and analyzed by Western Blots for the phosphorylation of AKT and ERK1/2 as an indicator of the AKT and ERK1/2 activations. (Test B) 10 mM 2DG was added to a medium of U0K121 cells in the presence of 25 mM glucose, and the medium was incubated for 1.5 hours. To the medium was added 10 mM α-, β-, or γ-cyclodextrin, and the medium was incubated for 30 minutes. Then, 0.3 μM ABT-263 was added thereto, and the medium was further incubated for 2 hours. Separately, a control that includes only α-, β-, or γ-cyclodextrin without 2DG or ABT-263, and another control that includes neither α-, β-, or γ-cyclodextrin, nor 2DG or ABT-263 were prepared. 2.5 hours after adding each cyclodextrin (i.e., 2 hours after adding ABT-263), all the cells were washed with the medium twice, and next day the live cells were counted by trypan-blue dye exclusion assay.

Each structure is given as a SMILES string.

Bak-Bcl-xL complex, sequence (Q07817 whole entry, one chain of several): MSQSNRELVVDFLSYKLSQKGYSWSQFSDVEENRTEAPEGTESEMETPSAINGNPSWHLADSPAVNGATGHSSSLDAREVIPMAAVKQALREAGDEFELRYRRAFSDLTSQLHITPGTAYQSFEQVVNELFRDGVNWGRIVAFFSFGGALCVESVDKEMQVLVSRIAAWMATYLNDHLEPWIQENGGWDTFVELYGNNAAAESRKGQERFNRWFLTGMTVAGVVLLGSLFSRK

As to `O=CC[C@@H](O)[C@H](O)[C@H](O)CO` [2DG, 2-deoxyglucose], the AKT phosphorylation result in data set [1] was “increasing the phosphorylation of AKT”.
As to `CC1(C)CCC(c2ccc(Cl)cc2)=C(CN2CCN(c3ccc(C(=O)NS(=O)(=O)c4ccc(N[C@H](CCN5CCOCC5)CSc5ccccc5)c(S(=O)(=O)C(F)(F)F)c4)cc3)CC2)C1` [ABT, ABT-263], the “caspase 9 activation” value in data set [2] (RCC4 cells pre-treated with 2DG and bCD, 3 μM ABT) is “activated”. For the same compound, in data set [2] (after ABT addition, RCC4 cells pre-treated with 2DG-bCD), the “time to full caspase 9 activation” value is not above 2 h. Moreover, the “release of cytochrome c from mitochondria” value in data set [3] (with or without 20 μM z-VAD) is given as “took place only after the addition of ABT”. The “time to full release of cytochrome c” value in data set [3] (after ABT addition) was not above 2 h. Moreover, the Bak-Bcl-xL complex entry in data set [4] is reported as “caused the dissociation”.
`CC(O)COC[C@H]1O[C@@H]2O[C@H]3[C@H](O)[C@@H](O)[C@@H](O[C@H]4[C@H](O)[C@@H](O)[C@@H](O[C@H]5[C@H](O)[C@@H](O)[C@@H](O[C@H]6[C@H](O)[C@@H](O)[C@@H](O[C@H]7[C@H](O)[C@@H](O)[C@@H](O[C@H]8[C@H](O)[C@@H](O)[C@@H](O[C@H]1[C@H](O)[C@H]2O)O[C@@H]8COCC(C)O)O[C@@H]7COCC(C)O)O[C@@H]6COCC(C)O)O[C@@H]5COCC(C)O)O[C@@H]4COCC(C)O)O[C@@H]3COCC(C)O` (stereo partly drawn) [HPBCD, (2-hydroxypropyl)-β-cyclodextrin]: in data set [5], the “amount that remains in circulation” value was “about 50%”.
Take `OC[C@H]1O[C@@H]2O[C@H]3[C@H](O)[C@@H](O)[C@@H](O[C@H]4[C@H](O)[C@@H](O)[C@@H](O[C@H]5[C@H](O)[C@@H](O)[C@@H](O[C@H]6[C@H](O)[C@@H](O)[C@@H](O[C@H]7[C@H](O)[C@@H](O)[C@@H](O[C@H]1[C@H](O)[C@H]2O)O[C@@H]7CO)O[C@@H]6CO)O[C@@H]5CO)O[C@@H]4CO)O[C@@H]3CO` [α-cyclodextrin]: the “enhancement of the combination effect of 2DG-ABT (live cells)” value in data set [6] is “little enhanced”.
